Measurements from PubChem BioAssay AID1996.
In brackets after ≈: the same amount, converted by molar mass.

Settings: buffer; pH 7.4; 200.0 µM

Row | solubility kinetic | Structure (SMILES)
1 | > 45.6 µg/mL | Cl.c1ccc2c3c(c(CN4CCCCC4)cc2c1)COC3
2 | 42.1 µg/mL (≈ 134 µM) | CN(CCO)c1cc(N(C)CCO)c([N+](=O)[O-])cc1[N+](=O)[O-]
3 | > 38.1 µg/mL | O=C(NC(=S)N1CCCC(O)C1)c1ccco1 (configuration not stated)
4 | 14.3 µg/mL (≈ 50.8 µM) | CCOC(=O)CC(=O)c1[nH]c(C)c(C(=O)OCC)c1C
5 | < 0.4 µg/mL | Cc1ccc(-c2cc(C(=O)N3CC4(C)CC3CC(C)(C)C4)no2)cc1 (configuration not stated)
6 | > 44.1 µg/mL | CCCCCCN1C2=NCCCN2c2ccccc21.Cl
7 | > 59.8 µg/mL | Cn1nc(C(=O)NCC(c2cccs2)N2CCOCC2)c2ccccc2c1=O (configuration not stated)
8 | 43 µg/mL (≈ 149 µM) | CCN=c1sc(C(=O)Nc2ccccc2)c(C)n1CC
9 | > 44.1 µg/mL | O=C(CNC(=O)c1ccco1)OCc1ccccc1Cl
10 | 0.6 µg/mL (≈ 1.83 µM) | COc1ccccc1C1=NC(c2ccccc2)CN1c1ccccc1 (configuration not stated)
11 | 15.1 µg/mL (≈ 52.6 µM) | CCOC(=O)NC(=O)/C(C#N)=C/c1ccc(N(C)C)cc1
12 | 3.6 µg/mL (≈ 11.9 µM) | Cc1cccc(NC(=O)Cc2ccc(-c3ccccc3)cc2)n1
13 | 16.1 µg/mL (≈ 66.2 µM) | CCc1ccc(NC2=CC(=O)CC(C)(C)C2)cc1
14 | > 43.1 µg/mL | O=c1cc(C(F)(F)F)nc(SCc2cccnc2)[nH]1
15 | > 60.8 µg/mL | CC(=O)NS(=O)(=O)c1ccc(NC(=O)c2ccc3c(c2)NC(=O)CS3)cc1
16 | 9.3 µg/mL (≈ 30.1 µM) | CCN(C(=O)COc1nc(C)cc(C)c1C#N)c1ccccc1
17 | < 0.4 µg/mL | CCn1c(SCc2ccc(OC)c(F)c2)nc2ccccc2c1=O
18 | > 46.6 µg/mL | O=C(Nc1ccc(S(=O)(=O)N2CCOCC2)cc1)C1CC1
19 | > 24.3 µg/mL | O=c1[nH][nH]c2ccccc2c1=O
20 | 3.3 µg/mL (≈ 7.04 µM) | COc1ccc(NC(=O)C23CC4CC(CC(Cl)(C4)C2)C3)cc1S(=O)(=O)N1CCOCC1
21 | > 38.6 µg/mL | O=C(Nc1cc(Cl)ccc1F)C1=COCCO1
22 | 39.9 µg/mL (≈ 125 µM) | Cc1ccc(C(=O)O/N=C(\N)Cc2cccs2)cc1[N+](=O)[O-]

Row | solubility kinetic | Structure (SMILES)
23 | > 27.3 µg/mL | CC(=O)C1=C(C)N2CCN=C2S1
24 | 20.3 µg/mL (≈ 57.3 µM) | CC1(C)C(=O)Nc2ccccc2N1C(=O)COC(=O)c1cccc(O)c1
25 | 42.4 µg/mL (≈ 137 µM) | CC(=O)NCCc1c[nH]c2ccc(OCc3ccccc3)cc12
26 | 10 µg/mL (≈ 31.4 µM) | CC(Cc1ccccc1)NC(=O)c1cc([N+](=O)[O-])ccc1Cl (configuration not stated)
27 | > 44 µg/mL | CC1CCCCC1NC(=O)COc1cccnc1[N+](=O)[O-] (configuration not stated)
28 | 26.1 µg/mL (≈ 81.5 µM) | Cn1c(=O)c2c(ncn2CC(=O)Nc2nccs2)n(C)c1=O
29 | > 51.4 µg/mL | Cc1nn(-c2ccc(F)cc2)c(C)c1/C=C/C(=O)N1CCNC(=O)C1
30 | > 44 µg/mL | COc1ccc(C(=O)NCCN2CCCC2)cc1[N+](=O)[O-]
31 | > 54.1 µg/mL | Cc1ccccc1-c1nnc(SCC(=O)Nc2cccnc2Cl)o1
32 | 58.3 µg/mL (≈ 149 µM) | CN1CCc2c(sc3nc(NCCO)n(-c4cccc(Cl)c4)c(=O)c23)C1
33 | 3.1 µg/mL (≈ 12 µM) | Cc1ccc(NC(=S)Nc2ccccn2)c(C)c1
34 | > 43.5 µg/mL | CC(=O)Nc1ccc(C(=O)OCC(=O)N2CCCC2)cc1
35 | 3.4 µg/mL (≈ 9.73 µM) | C=CCn1c(SCC(=O)N(C)C)nc2sc3c(c2c1=O)CCC3
36 | > 47.3 µg/mL | CC(=O)C1=C(O)C(=O)N(Cc2ccco2)C1c1cccc(F)c1 (configuration not stated)
37 | > 47 µg/mL | CN(C)Cc1c(O)ccc2occ(C(=O)c3ccc(F)cc3)c12
38 | > 31.7 µg/mL | CCN1CCN(C2CC(=O)NC2=O)CC1 (configuration not stated)
39 | < 0.8 µg/mL | C=CCOc1ccc(/C=C/C(=O)OCC(=O)NC2CCCCCC2)cc1
40 | > 51.9 µg/mL | CC1CCCC(C)N1C(=O)COC(=O)c1cc(F)c(F)cc1Cl (configuration not stated)
41 | > 56.7 µg/mL | O=C(COC(=O)C1CC(=O)N(Cc2ccco2)C1)Nc1ccc(F)cc1F (configuration not stated)
42 | 0.7 µg/mL (≈ 2.56 µM) | COc1ccccc1/C=N/OC(=O)c1ccc(F)cc1
43 | < 0.6 µg/mL | CCOc1ccc2oc(-c3ccccc3)c(C(N)=O)c2c1

Row | Structure (SMILES) | solubility kinetic
44 | O=c1c2ccccc2[nH]c(=S)n1-c1cccnc1 | 7.6 µg/mL (≈ 29.8 µM)
45 | CCN1CCN(c2nc3c(c(=O)[nH]2)CCC3)CC1 | 36.1 µg/mL (≈ 145 µM)
46 | CC(C)CNc1c2c(nc3ccccc13)CCC2.Cl | > 41.5 µg/mL
47 | COCCNC(=S)N1CCN(C)CC1.O=C(O)C(=O)O | > 46.1 µg/mL
